In patent US10221215B2, “Hydrogen bond surrogate macrocycles as modulators of Ras” (New York University, priority 2011, dated 2019):
Non-standard residues stand in square brackets, D forms with d. Residues, ends and D or L forms follow the SMILES beside them. Aib = CC(C)(N)C(=O)O

test: Solubility of peptides and HBS helices; assay type: physicochemical
Description: Design of Ras/Sos inhibitors was performed starting with the wild-type Sos929-944 α-H sequence. Additional modifications were introduced in order to improve the solubility of the HBS peptides. Charged residues were introduced at positions not involved in Ras binding. Computational alanine scanning was performed on two separate crystal structures (PDB codes: 1NVW and 1BKD) of the Ras/Sos complex to determine other important binding residues in the α-H helix that may be incorporated in the peptide mimetics. Additionally, non-essential β-branched residues (including threonine) in the wild-type α-H sequence were replaced with suitable residues to afford peptides with higher helical content (Table 1), as it was hypothesized that such modifications would improve α-helicity.

Row | Compound | Solubility
1 | CC[C@H](C)[C@H](NC(=O)CN1CC=CCCC(=O)N[C@@H](Cc2ccccc2)C(=O)N[C@@H](CCC(=O)O)C1=O)C(=O)N[C@@H](Cc1ccc(O)cc1)C(=O)N[C@@H](CCCNC(=N)N)C(=O)N[C@@H](CC(C)C)C(=O)N[C@@H](CCC(=O)O)C(=O)N[C@@H](CC(C)C)C(=O)N[C@@H](CC(C)C)C(=O)N[C@@H](CCCCN)C(N)=O [HBS 8] | soluble
2 | Ac-FEGIYRLELLKAEEAN-NH2 (N-terminus assumed) [Peptide 7] | soluble
3 | CC(C)C[C@H](NC(=O)CN1CC=CCCC(=O)N[C@@H](Cc2ccccc2)C(=O)N[C@@H](CCC(=O)O)C1=O)C(=O)N[C@@H](CC(C)C)C(=O)N[C@@H](CCCNC(=N)N)C(=O)N[C@@H](CC(C)C)C(=O)N[C@@H](Cc1c[nH]c2ccccc12)C(=O)N[C@@H](CC(C)C)C(=O)N[C@@H](CCCNC(=N)N)C(=O)N[C@@H](CCCCN)C(=O)NC(C)(C)C(=O)N[C@@H](CCC(=O)O)C(=O)N[C@@H](CCC(=O)O)C(=O)NC(C)(C)C(=O)N[C@@H](CC(N)=O)C(N)=O [HBS 10] | soluble
4 | CC[C@H](C)[C@H](NC(=O)CNC(=O)[C@H](CCC(=O)O)NC(=O)[C@H](Cc1ccccc1)NC(C)=O)C(=O)N[C@@H](Cc1ccc(O)cc1)C(=O)N[C@@H](CCCNC(=N)N)C(=O)N[C@@H](CC(C)C)C(=O)N[C@@H](CCC(=O)O)C(=O)N[C@@H](CC(C)C)C(=O)N[C@@H](CC(C)C)C(=O)N[C@@H](CCCCN)C(=O)NC(C)(C)C(=O)N[C@@H](CCC(=O)O)C(=O)N[C@@H](CCC(=O)O)C(=O)NC(C)(C)C(=O)N[C@@H](CC(N)=O)C(N)=O [Peptide 11] (Ac-FEGIYRLELLK[Aib]EE[Aib]N-NH2; N-terminus assumed) | soluble
5 | CC[C@H](C)[C@H](NC(=O)CN1CC=CCCC(=O)N[C@@H](C)C(=O)N[C@@H](CCC(=O)O)C1=O)C(=O)N[C@@H](Cc1ccc(O)cc1)C(=O)N[C@@H](CCCNC(=N)N)C(=O)N[C@@H](CC(C)C)C(=O)N[C@@H](CCC(=O)O)C(=O)N[C@@H](CC(C)C)C(=O)N[C@@H](CC(C)C)C(=O)N[C@@H](CCCCN)C(=O)N[C@@H](C)C(=O)N[C@@H](CCC(=O)O)C(=O)N[C@@H](C)C(=O)N[C@@H](C)C(=O)N[C@@H](C)C(N)=O [HBS 7^mut] | soluble
6 | Ac-FEGIYRLELLK-NH2 (N-terminus assumed) [Peptide 8] | soluble
7 | CC[C@H](C)[C@H](NC(=O)CN1CC=CCCC(=O)N[C@@H](Cc2ccccc2)C(=O)N[C@@H](CCC(=O)O)C1=O)C(=O)N[C@@H](Cc1ccc(O)cc1)C(=O)N[C@@H](CCCNC(=N)N)C(=O)N[C@@H](CC(C)C)C(=O)N[C@@H](CCC(=O)O)C(=O)N[C@@H](CC(C)C)C(=O)N[C@@H](CC(C)C)C(=O)N[C@@H](CCCCN)C(=O)N[C@@H](C)C(=O)N[C@@H](CCC(=O)O)C(=O)N[C@@H](CCC(=O)O)C(=O)N[C@@H](C)C(=O)N[C@@H](CC(N)=O)C(N)=O [HBS 7] | soluble
8 | Ac-AEGIYRTDILRTEEGN-NH2 (N-terminus assumed) [Peptide 3] | partially
9 | Ac-AEGIYRADILRTEEGN-NH2 (N-terminus assumed) [Peptide 4] | partially
10 | Ac-FEGIYRTDILRTEEGN-NH2 (N-terminus assumed) [Peptide 1] | partially
11 | CC(=O)N[C@@H](Cc1ccccc1)C(=O)N[C@@H](CCC(=O)O)C(=O)NCC(=O)N[C@@H](CC(C)C)C(=O)N[C@@H](CC(C)C)C(=O)N[C@@H](CCCNC(=N)N)C(=O)N[C@@H](CC(C)C)C(=O)N[C@@H](Cc1c[nH]c2ccccc12)C(=O)N[C@@H](CC(C)C)C(=O)N[C@@H](CCCNC(=N)N)C(=O)N[C@@H](CCCCN)C(=O)NC(C)(C)C(=O)N[C@@H](CCC(=O)O)C(=O)N[C@@H](CCC(=O)O)C(=O)NC(C)(C)C(=O)N[C@@H](CC(N)=O)C(N)=O [Peptide 10] (Ac-FEGLLRLWLRK[Aib]EE[Aib]N-NH2; N-terminus assumed) | soluble
12 | Ac-FGEGIYRTDILRTEEGN-NH2 (N-terminus assumed) [Peptide 2] | partially
13 | CC(C)C[C@H](NC(=O)CN1CC=CCCC(=O)N[C@@H](Cc2ccccc2)C(=O)N[C@@H](CCC(=O)O)C1=O)C(=O)N[C@@H](CC(C)C)C(=O)N[C@@H](CCCNC(=N)N)C(=O)N[C@@H](CC(C)C)C(=O)N[C@@H](Cc1c[nH]c2ccccc12)C(=O)N[C@@H](CC(C)C)C(=O)N[C@@H](CCCNC(=N)N)C(=O)N[C@@H](CCCCN)C(=O)NC(C)(C)C(=O)N[C@@H](CCC(=O)O)C(=O)N[C@@H](CCC(=O)O)C(=O)N[C@@H](C)C(=O)N[C@@H](CC(N)=O)C(N)=O [HBS 9] | soluble
14 | CC[C@H](C)[C@H](NC(=O)CN1CC=CCCC(=O)N[C@@H](Cc2ccccc2)C(=O)N[C@@H](CCC(=O)O)C1=O)C(=O)N[C@@H](Cc1ccc(O)cc1)C(=O)N[C@@H](CCCNC(=N)N)C(=O)N[C@H](C(=O)N[C@@H](CCC(=O)O)C(=O)N[C@@H](CC(C)C)C(=O)N[C@@H](CC(C)C)C(=O)N[C@@H](CCCCN)C(=O)N[C@@H](C)C(=O)N[C@@H](CCC(=O)O)C(=O)N[C@@H](CCC(=O)O)C(=O)N[C@@H](C)C(=O)N[C@@H](CC(N)=O)C(N)=O)[C@@H](C)O [HBS 6] | soluble
15 | CC[C@H](C)[C@H](NC(=O)[C@H](C)N1CC=CCCC(=O)N[C@@H](Cc2ccccc2)C(=O)N[C@@H](CCC(=O)O)C1=O)C(=O)N[C@@H](Cc1ccc(O)cc1)C(=O)N[C@@H](CCCNC(=N)N)C(=O)N[C@@H](CC(C)C)C(=O)N[C@@H](CCC(=O)O)C(=O)N[C@@H](CC(C)C)C(=O)N[C@@H](CC(C)C)C(=O)N[C@@H](CCCCN)C(=O)N[C@@H](C)C(=O)N[C@@H](CCC(=O)O)C(=O)N[C@@H](CCC(=O)O)C(=O)N[C@@H](C)C(=O)N[C@@H](CC(N)=O)C(N)=O [HBS 13] | soluble
16 | CC[C@H](C)[C@H](NC(=O)CN1CC=CCCC(=O)N[C@@H](Cc2ccccc2)C(=O)N[C@@H](CCC(=O)O)C1=O)C(=O)N[C@@H](Cc1ccc(O)cc1)C(=O)N[C@@H](CCCNC(=N)N)C(=O)N[C@H](C(=O)N[C@@H](CC(=O)O)C(=O)N[C@H](C(=O)N[C@@H](CC(C)C)C(=O)N[C@@H](CCCNC(=N)N)C(=O)N[C@H](C(=O)N[C@@H](CCC(=O)O)C(=O)N[C@@H](CCC(=O)O)C(=O)NCC(=O)N[C@@H](CC(N)=O)C(N)=O)[C@@H](C)O)[C@@H](C)CC)[C@@H](C)O [HBS 1] | partially
17 | Ac-FEGIYRTDILR-NH2 (N-terminus assumed) [Peptide 5] | soluble
18 | CC[C@H](C)[C@H](NC(=O)CN1CC=CCCC(=O)N[C@@H](Cc2ccccc2)C(=O)N[C@@H](CCC(=O)O)C1=O)C(=O)N[C@@H](Cc1ccc(O)cc1)C(=O)N[C@@H](CCCNC(=N)N)C(=O)N[C@@H](CC(C)C)C(=O)N[C@@H](CCC(=O)O)C(=O)N[C@@H](CC(C)C)C(=O)N[C@@H](CC(C)C)C(=O)N[C@@H](CCCCN)C(=O)NC(C)(C)C(=O)N[C@@H](CCC(=O)O)C(=O)N[C@@H](CCC(=O)O)C(=O)NC(C)(C)C(=O)N[C@@H](CC(N)=O)C(N)=O [HBS 11] | soluble
19 | CC[C@H](C)[C@H](NC(=O)CNC(=O)[C@H](Cc1ccccc1)NC(=O)[C@H](Cc1ccccc1)NC(C)=O)C(=O)N[C@@H](Cc1ccc(O)cc1)C(=O)N[C@@H](CC(C)C)C(=O)N[C@H](C(=O)N[C@@H](CC(N)=O)C(=O)N[C@H](C(=O)N[C@@H](CC(C)C)C(=O)N[C@@H](CCCCN)C(=O)N[C@H](C(=O)N[C@@H](CCC(=O)O)C(=O)N[C@@H](CCC(=O)O)C(=O)NCC(=O)N[C@@H](CC(N)=O)C(N)=O)[C@@H](C)O)[C@@H](C)CC)[C@@H](C)O [wt (Sos929-944), reference compound] | insoluble
20 | Ac-FEGIYRTELLKAEEAN-NH2 (N-terminus assumed) [Peptide 6] | soluble
21 | Ac-FEAIYRLELLKAEEAN-NH2 (N-terminus assumed) [Peptide 13] | soluble
22 | Ac-FEAIYRLEKLKAEEAN-NH2 (N-terminus assumed) [Peptide 15] | soluble
23 | CC[C@H](C)[C@H](NC(=O)CN1CC=CCCC(=O)N[C@@H](Cc2ccccc2)C(=O)N[C@@H](CCC(=O)O)C1=O)C(=O)N[C@@H](Cc1ccc(O)cc1)C(=O)N[C@@H](CCCNC(=N)N)C(=O)N[C@@H](CC(C)C)C(=O)N[C@@H](CCC(=O)O)C(=O)N[C@@H](CCCCN)C(=O)N[C@@H](CC(C)C)C(=O)N[C@@H](CCCCN)C(=O)N[C@@H](C)C(=O)N[C@@H](CCC(=O)O)C(=O)N[C@@H](CCC(=O)O)C(=O)N[C@@H](C)C(=O)N[C@@H](CC(N)=O)C(=O)N[C@@H](CCCNC(=N)N)C(=O)N[C@@H](CCCNC(=N)N)C(N)=O [HBS 16] | soluble
24 | CC(C)C[C@H](NC(=O)CN1CC=CCCC(=O)N[C@@H](Cc2ccccc2)C(=O)N[C@@H](CCC(=O)O)C1=O)C(=O)N[C@@H](CC(C)C)C(=O)N[C@@H](CCCNC(=N)N)C(=O)N[C@@H](CC(C)C)C(=O)N[C@@H](Cc1c[nH]c2ccccc12)C(=O)N[C@@H](CC(C)C)C(=O)N[C@@H](CCCNC(=N)N)C(=O)N[C@@H](CCCCN)C(=O)N[C@@H](C)C(=O)N[C@@H](CCC(=O)O)C(=O)N[C@@H](CCC(=O)O)C(=O)N[C@@H](C)C(=O)N[C@@H](CC(N)=O)C(N)=O [HBS 12] | soluble
25 | CC[C@H](C)[C@H](NC(=O)[C@H](C)N1CC=CCCC(=O)N[C@@H](Cc2ccccc2)C(=O)N[C@@H](CCC(=O)O)C1=O)C(=O)N[C@@H](Cc1ccc(O)cc1)C(=O)N[C@@H](CCCNC(=N)N)C(=O)N[C@@H](CC(C)C)C(=O)N[C@@H](CCC(=O)O)C(=O)N[C@H]1CCCCNC(=O)CC[C@@H](C(=O)N[C@@H](CCC(=O)O)C(=O)N[C@@H](C)C(=O)N[C@@H](CC(N)=O)C(N)=O)NC(=O)[C@H](C)NC(=O)[C@H](CCCCN)NC(=O)[C@H](CC(C)C)NC1=O [HBS 15] | soluble
26 | Ac-FEGLLRLWLRKAEEAN-NH2 (N-terminus assumed) [Peptide 12] | soluble
